Literature values as cited in US7547545B2, “Directed in vitro differentiation of marrow stromal cells into neural cell progenitors” (priority 2001, dated 2009).

Key:
[1] = system: C6 glioma cells; conditions: Sharma et al. 1987 and Ghosh et al. 1997
[2] = system: prostate tumor cells; conditions: Cox et al. 1999
[3] = system: medulloblastoma cell line, MCD-1; conditions: MCD-1 cells, Moore et al. 1996

Compound | neural differentiation [1] | neuroendocrine characteristics [2] | extension of processes [3]
CCCC(=O)Nc1ncnc2c1ncn2[C@@H]1O[C@@H]2COP(=O)(O)O[C@H]2[C@H]1OC(=O)CCC [dbcAMP, dibutyryl cyclic AMP] | induced neural differentiation | induce prostate tumor cells to assume many of the characteristics of neuroendocrine cells | greatly increase the extension of processes
CNC[C@H](O)c1ccc(O)c(O)c1 [epinephrine] |  | induce prostate tumor cells to assume many of the characteristics of neuroendocrine cells | 
CC(C)NCC(O)c1ccc(O)c(O)c1 (centres unmarked) [isoproterenol] |  | induce prostate tumor cells to assume many of the characteristics of neuroendocrine cells | 
